Data published in PubChem BioAssay AID1259407 (Chemical Carcinogenesis Research Information System (CCRIS), 2018).
The source made the active and inactive calls. The rule behind the calls is not given here.

Tested on: CCRIS mutagenicity, Ames/micronucleus/aberration tests
Experiment: CCRIS mutagenicity studies
[1] = Test System: AMES SALMONELLA TYPHIMURIUM, Strain/Indicator: TA97, Metabolic Activation: NONE, Method: STANDARD PLATE
[2] = Test System: AMES SALMONELLA TYPHIMURIUM, Strain/Indicator: TA97, Metabolic Activation: RAT, LIVER, S-9, AROCLOR 1254, Method: STANDARD PLATE
[3] = Test System: AMES SALMONELLA TYPHIMURIUM, Strain/Indicator: TA98, Metabolic Activation: NONE, Method: STANDARD PLATE
[4] = Test System: AMES SALMONELLA TYPHIMURIUM, Strain/Indicator: TA98, Metabolic Activation: RAT, LIVER, S-9, AROCLOR 1254, Method: STANDARD PLATE
[5] = Test System: AMES SALMONELLA TYPHIMURIUM, Strain/Indicator: TA100, Metabolic Activation: NONE, Method: STANDARD PLATE
[6] = Test System: AMES SALMONELLA TYPHIMURIUM, Strain/Indicator: TA100, Metabolic Activation: RAT, LIVER, S-9, AROCLOR 1254, Method: STANDARD PLATE
[7] = Test System: AMES SALMONELLA TYPHIMURIUM, Strain/Indicator: TA102, Metabolic Activation: NONE, Method: STANDARD PLATE
[8] = Test System: AMES SALMONELLA TYPHIMURIUM, Strain/Indicator: TA104, Metabolic Activation: NONE, Method: STANDARD PLATE

**Q.** Which results are given for `Cc1cc(=O)n(-c2ccccc2)n1C`?
**A.** mutagenic call [1]: inactive; negative; mutagenic call [2]: inactive; negative; mutagenic call (Test System: AMES SALMONELLA TYPHIMURIUM, Strain/Indicator: TA97A, Metabolic Activation: NONE, Method: STANDARD PLATE): inactive; negative; mutagenic call (Test System: AMES SALMONELLA TYPHIMURIUM, Strain/Indicator: TA97A, Metabolic Activation: RAT LIVER S-9, PHENOBARBITAL, Method: STANDARD PLATE): inactive; negative; mutagenic call (Test System: AMES SALMONELLA TYPHIMURIUM, Strain/Indicator: TA98, Metabolic Activation: GUINEA PIG, LIVER, S-9, PCB, Method: PREINCUBATION): inactive; negative; mutagenic call (Test System: AMES SALMONELLA TYPHIMURIUM, Strain/Indicator: TA98, Metabolic Activation: HAMSTER, LIVER, S-9, PCB, Method: PREINCUBATION): inactive; negative; mutagenic call (Test System: AMES SALMONELLA TYPHIMURIUM, Strain/Indicator: TA98, Metabolic Activation: MOUSE, LIVER, S-9, PCB, Method: PREINCUBATION): inactive; negative; mutagenic call (Test System: AMES SALMONELLA TYPHIMURIUM, Strain/Indicator: TA98, Metabolic Activation: NONE, Method: PREINCUBATION): inactive; negative; mutagenic call [3]: inactive; negative; mutagenic call (Test System: AMES SALMONELLA TYPHIMURIUM, Strain/Indicator: TA98, Metabolic Activation: RAT LIVER S-9, PHENOBARBITAL, Method: STANDARD PLATE): inactive; negative; mutagenic call [4]: inactive; negative; mutagenic call (Test System: AMES SALMONELLA TYPHIMURIUM, Strain/Indicator: TA98, Metabolic Activation: RAT, LIVER, S-9, PCB, Method: PREINCUBATION): inactive; negative; mutagenic call (Test System: AMES SALMONELLA TYPHIMURIUM, Strain/Indicator: TA100, Metabolic Activation: GUINEA PIG, LIVER, S-9, PCB, Method: PREINCUBATION): inactive; negative; mutagenic call (Test System: AMES SALMONELLA TYPHIMURIUM, Strain/Indicator: TA100, Metabolic Activation: HAMSTER, LIVER, S-9, PCB, Method: PREINCUBATION): inactive; negative; mutagenic call (Test System: AMES SALMONELLA TYPHIMURIUM, Strain/Indicator: TA100, Metabolic Activation: MOUSE, LIVER, S-9, PCB, Method: PREINCUBATION): inactive; negative; mutagenic call (Test System: AMES SALMONELLA TYPHIMURIUM, Strain/Indicator: TA100, Metabolic Activation: NONE, Method: PREINCUBATION): inactive; negative; mutagenic call [5]: inactive; negative; mutagenic call (Test System: AMES SALMONELLA TYPHIMURIUM, Strain/Indicator: TA100, Metabolic Activation: RAT LIVER S-9, PHENOBARBITAL, Method: STANDARD PLATE): inactive; negative; mutagenic call [6]: inactive; negative; mutagenic call (Test System: AMES SALMONELLA TYPHIMURIUM, Strain/Indicator: TA100, Metabolic Activation: RAT, LIVER, S-9, PCB, Method: PREINCUBATION): inactive; negative; mutagenic call [7]: inactive; negative; mutagenic call (Test System: AMES SALMONELLA TYPHIMURIUM, Strain/Indicator: TA102, Metabolic Activation: RAT LIVER S-9, PHENOBARBITAL, Method: STANDARD PLATE): inactive; negative; mutagenic call (Test System: AMES SALMONELLA TYPHIMURIUM, Strain/Indicator: TA102, Metabolic Activation: RAT, LIVER, S-9, AROCLOR 1254, Method: STANDARD PLATE): inactive; negative; mutagenic call [8]: inactive; negative; mutagenic call (Test System: AMES SALMONELLA TYPHIMURIUM, Strain/Indicator: TA104, Metabolic Activation: RAT, LIVER, S-9, AROCLOR 1254, Method: STANDARD PLATE): inactive; negative

**Q.** `COC(=O)Nc1nc2ccc(S(=O)c3ccccc3)cc2[nH]1` (configuration not stated) was tested. Which mutagenic call (End Point: In vivo chromosomal aberrations, Test System: Bone marrow cells, Species: Mouse, Strain/Sex: Swiss /Female, Route: Oral) did it give?
**A.** Its mutagenic call is “active; positive (structural changes and ploidy)”.

**Q.** What about the mutagenic call (End Point: In vivo chromosomal aberrations, Test System: Bone marrow cells, Species: Mouse, Strain/Sex: Swiss /Male, Route: Oral) of the same compound?
**A.** The mutagenic call was “active; positive (structural changes and ploidy)”.

**Q.** What about the mutagenic call (End Point: In vivo chromosomal aberrations, Test System: Spermatocytes, Species: Mouse, Strain/Sex: Swiss /Male, Route: Oral) of the same compound?
**A.** Its mutagenic call is “active; positive (ploidy)”.

**Q.** For `Cc1occc(=O)c1O`, which mutagenic call (End Point: IN VIVO MICRONUCLEUS, Test System: BONE MARROW POLYCHROMATIC ERYTHROCYTES, Species: MOUSE, Strain/Sex: DDY/MALE, Route: IP) is on record?
**A.** The mutagenic call was “active; positive”.

**Q.** What about the mutagenic call (Test System: AMES SALMONELLA TYPHIMURIUM, Strain/Indicator: TA92, Metabolic Activation: NONE, Method: STANDARD PLATE) of the same compound?
**A.** Its mutagenic call is “inactive; negative”.

**Q.** And the mutagenic call (Test System: AMES SALMONELLA TYPHIMURIUM, Strain/Indicator: TA97, Metabolic Activation: NONE, Method: PREINCUBATION)?
**A.** Its mutagenic call is “inactive; negative”.

**Q.** What about the mutagenic call (Test System: AMES SALMONELLA TYPHIMURIUM, Strain/Indicator: TA97, Metabolic Activation: RAT, LIVER, S-9, AROCLOR 1254, Method: PREINCUBATION) of the same compound?
**A.** Its mutagenic call is “inactive; negative”.

**Q.** And the mutagenic call [3]?
**A.** The mutagenic call was “inactive; negative”.

**Q.** What about the mutagenic call [5] of the same compound?
**A.** Its mutagenic call is “inactive; negative”.

**Q.** And the mutagenic call (Test System: AMES SALMONELLA TYPHIMURIUM, Strain/Indicator: TA102, Metabolic Activation: NONE, Method: PREINCUBATION)?
**A.** The mutagenic call was “inactive; negative”.

**Q.** And the mutagenic call (Test System: AMES SALMONELLA TYPHIMURIUM, Strain/Indicator: TA102, Metabolic Activation: RAT, LIVER, S-9, AROCLOR 1254, Method: PREINCUBATION)?
**A.** Its mutagenic call is “inactive; negative”.

**Q.** And the mutagenic call [8]?
**A.** Its mutagenic call is “inactive; negative”.

**Q.** With `Cn1c2ccccc2c2nn[n+]([O-])c(C(=O)OCCCl)c21` as the compound, how does the mutagenic call [1] read?
**A.** The mutagenic call was “active; positive”.

**Q.** And the mutagenic call (Test System: AMES SALMONELLA TYPHIMURIUM, Strain/Indicator: TA97, Metabolic Activation: RAT, LIVER, S-9, AROCLOR 1254 (4%, 10%), Method: STANDARD PLATE)?
**A.** Its mutagenic call is “active; positive”.

**Q.** And the mutagenic call [3]?
**A.** Its mutagenic call is “active; positive”.

**Q.** And the mutagenic call (Test System: AMES SALMONELLA TYPHIMURIUM, Strain/Indicator: TA98, Metabolic Activation: RAT, LIVER, S-9, AROCLOR 1254 (4%, 10%), Method: STANDARD PLATE)?
**A.** Its mutagenic call is “active; positive”.

**Q.** What about the mutagenic call [5] of the same compound?
**A.** The mutagenic call was “inactive; negative”.

**Q.** And the mutagenic call (Test System: AMES SALMONELLA TYPHIMURIUM, Strain/Indicator: TA100, Metabolic Activation: RAT, LIVER, S-9, AROCLOR 1254 (4%, 10%), Method: STANDARD PLATE)?
**A.** Its mutagenic call is “inactive; negative”.

**Q.** And the mutagenic call [7]?
**A.** The mutagenic call was “inactive; negative”.

**Q.** What about the mutagenic call (Test System: AMES SALMONELLA TYPHIMURIUM, Strain/Indicator: TA102, Metabolic Activation: RAT, LIVER, S-9, AROCLOR 1254 (4%, 10%), Method: STANDARD PLATE) of the same compound?
**A.** Its mutagenic call is “inactive; negative”.

**Q.** `C/C=C\c1ccc(OC)cc1OC` was tested. Which mutagenic call [1] did it give?
**A.** Its mutagenic call is “inactive; negative”.

**Q.** What about the mutagenic call [2] of the same compound?
**A.** Its mutagenic call is “inactive; negative”.

**Q.** What about the mutagenic call [3] of the same compound?
**A.** Its mutagenic call is “inactive; negative”.

**Q.** What about the mutagenic call [4] of the same compound?
**A.** Its mutagenic call is “inactive; negative”.

**Q.** What about the mutagenic call [5] of the same compound?
**A.** Its mutagenic call is “inactive; negative”.

**Q.** And the mutagenic call [6]?
**A.** Its mutagenic call is “inactive; negative”.

**Q.** And the mutagenic call (Test System: AMES SALMONELLA TYPHIMURIUM, Strain/Indicator: TA1535, Metabolic Activation: NONE, Method: STANDARD PLATE)?
**A.** The mutagenic call was “inactive; negative”.

**Q.** And the mutagenic call (Test System: AMES SALMONELLA TYPHIMURIUM, Strain/Indicator: TA1535, Metabolic Activation: RAT, LIVER, S-9, AROCLOR 1254, Method: STANDARD PLATE)?
**A.** Its mutagenic call is “inactive; negative”.

**Q.** What about the mutagenic call (Test System: AMES SALMONELLA TYPHIMURIUM, Strain/Indicator: TA1537, Metabolic Activation: NONE, Method: STANDARD PLATE) of the same compound?
**A.** The mutagenic call was “inactive; negative”.

**Q.** What about the mutagenic call (Test System: AMES SALMONELLA TYPHIMURIUM, Strain/Indicator: TA1537, Metabolic Activation: RAT, LIVER, S-9, AROCLOR 1254, Method: STANDARD PLATE) of the same compound?
**A.** The mutagenic call was “inactive; negative”.

**Q.** And the mutagenic call (Test System: AMES SALMONELLA TYPHIMURIUM, Strain/Indicator: TA1538, Metabolic Activation: NONE, Method: STANDARD PLATE)?
**A.** Its mutagenic call is “inactive; negative”.

**Q.** And the mutagenic call (Test System: AMES SALMONELLA TYPHIMURIUM, Strain/Indicator: TA1538, Metabolic Activation: RAT, LIVER, S-9, AROCLOR 1254, Method: STANDARD PLATE)?
**A.** The mutagenic call was “inactive; negative”.

**Q.** With `C1=CC23CCCC2(C=C1)O3` (configuration not stated) as the compound, how does the mutagenic call [3] read?
**A.** The mutagenic call was “inactive; negative”.

**Q.** And the mutagenic call [5]?
**A.** The mutagenic call was “active; positive”.

**Q.** And the mutagenic call (Test System: AMES SALMONELLA TYPHIMURIUM, Strain/Indicator: TM677/8-AZAGUANINE, Metabolic Activation: NONE, Method: STANDARD PLATE)?
**A.** Its mutagenic call is “active; positive”.

**Q.** Which results are given for `O=C(N[C@H](CO)[C@H](O)c1ccc([N+](=O)[O-])cc1)C(Cl)Cl`?
**A.** mutagenic call (Test System: CHINESE HAMSTER V-79, Strain/Indicator: V-79/6-THIOGUANINE, Metabolic Activation: NONE): active; positive; mutagenic call (Test System: CHINESE HAMSTER V-79, Strain/Indicator: V-79/6-THIOGUANINE, Metabolic Activation: RAT HEPATOCYTES): inactive; negative
